Test results: PubChem BioAssay AID330 (DTP/NCI, 2004)
“And” between values parts separate entries of the source, which are not always exact repeats. Equal values may be shown once. Toxic doses and inconclusive results are not listed. How the source made its calls: active means survival T/C of 150% or more; inactive means T/C below 125% in these data.

Test system: P388 leukemia ip, CD2F1 mice, survival T/C
Test: NCI In Vivo Anticancer Drug Screen. Data for tumor model P388 Leukemia (intraperitoneal) in CD2F1 (CDF1) mice
Conditions: endpoint: median survival time, higher = longer survival
How it was run: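 Mice carrying the transplanted tumor received test compound or vehicle. Survival was recorded in each group, and the value is the treated-group measurement divided by that of the vehicle-treated control group.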

[1] = dose: 100.0 mg/kg/injection, schedule: Q01DX009 (ip), vehicle: saline
[2] = dose: 200.0 mg/kg/injection, schedule: Q01DX009 (ip), vehicle: saline
[3] = dose: 50.0 mg/kg/injection, schedule: Q01DX009 (ip), vehicle: saline with Tween-80
[4] = dose: 100.0 mg/kg/injection, schedule: Q01DX009 (ip), vehicle: saline with Tween-80
[5] = dose: 50.0 mg/kg/injection, schedule: Q01DX005 (ip), vehicle: saline with Tween-80
[6] = dose: 100.0 mg/kg/injection, schedule: Q01DX005 (ip), vehicle: saline with Tween-80
[7] = dose: 200.0 mg/kg/injection, schedule: Q01DX005 (ip), vehicle: saline with Tween-80

Measured: T/C

COc1c[nH]c(CO)cc1=O
inactive: [1] 101 % of control and 104 % of control | [2] 108 % of control and 114 % of control | dose: 400.0 mg/kg/injection, schedule: Q01DX009 (ip), vehicle: saline 99 % of control and 114 % of control

CCOC(=O)C1=C(O)C2(CC(C)=C(C)CS2=O)SC1=Nc1ccccc1 (centres undefined)
inactive: dose: 60.0 mg/kg/injection, schedule: Q01DX005 (ip), vehicle: saline with Tween-80 96 % of control | dose: 120.0 mg/kg/injection, schedule: Q01DX005 (ip), vehicle: saline with Tween-80 107 % of control | dose: 240.0 mg/kg/injection, schedule: Q01DX005 (ip), vehicle: saline with Tween-80 104 % of control

COc1cccc2c1C(=O)c1c(O)c3c(c(O)c1C2=O)[C@@H](OC)[C@@](O)(C(C)=O)C[C@@H]3OC1CC(N)C(O)C(C)O1 (some centres undefined)
inactive: dose: 3.13 mg/kg/injection, schedule: Q04DX003 (ip), vehicle: saline 110 % of control | dose: 6.25 mg/kg/injection, schedule: Q04DX003 (ip), vehicle: saline 115 % of control

CCCCCCCCCCCCCCCCCC(=O)CC(=O)C(F)(F)F (tested in a mixture with another compound)
inactive: [3] 91 % of control | [4] 92 % of control

COC1/C=C/OC2(C)Oc3c(C)c(O)c4c(c3C2=O)C(=O)C=C(NC(=O)/C(C)=C\C=C\C(C)C(OC=O)C(C)C(O)C(C)C(OC(C)=O)C1C)C4=O (centres undefined)
inactive: [3] 100 % of control | [4] 92 % of control | dose: 200.0 mg/kg/injection, schedule: Q01DX009 (ip), vehicle: saline with Tween-80 91 % of control

O=C1NC(c2ccccc2)N=C2Oc3ccccc3C=C12 (centres undefined)
inactive: dose: 3.12 mg/kg/injection, schedule: Q01DX009 (ip), vehicle: saline 97 % of control | dose: 6.25 mg/kg/injection, schedule: Q01DX009 (ip), vehicle: saline 97 % of control | dose: 12.5 mg/kg/injection, schedule: Q01DX009 (ip), vehicle: saline with Tween-80 115 % of control | dose: 12.5 mg/kg/injection, schedule: Q01DX009 (ip), vehicle: saline 106 % of control

COC(=O)NC1(NC(=O)OC)NC(=O)c2cc(OC)c(OC)c(OC)c2N1
inactive: dose: 25.0 mg/kg/injection, schedule: Q01DX005 (ip), vehicle: saline + alcohol 102 % of control | dose: 50.0 mg/kg/injection, schedule: Q01DX005 (ip), vehicle: saline + alcohol 98 % of control | dose: 100.0 mg/kg/injection, schedule: Q01DX005 (ip), vehicle: saline + alcohol 100 % of control | dose: 200.0 mg/kg/injection, schedule: Q01DX005 (ip), vehicle: saline + alcohol 93 % of control

COC1=C(OC)C(=O)C(N(C)C)=C(CO)C1=O
inactive: dose: 30.0 mg/kg/injection, schedule: Q01DX005 (ip), vehicle: saline 105 % of control | dose: 60.0 mg/kg/injection, schedule: Q01DX005 (ip), vehicle: saline 103 % of control and 108 % of control | dose: 120.0 mg/kg/injection, schedule: Q01DX005 (ip), vehicle: saline 117 % of control and 120 % of control

CCc1ccc2c(-c3ccccc3)c3ccccc3c(-c3ccccc3)c2c1
inactive: dose: 12.5 mg/kg/injection, schedule: Q01DX005 (ip), vehicle: saline with Tween-80 96 % of control | dose: 25.0 mg/kg/injection, schedule: Q01DX005 (ip), vehicle: saline with Tween-80 99 % of control | [5] 88 % of control and 90 % of control | [6] 90 % of control | [7] 88 % of control

COc1cc2c(cc1C(CC(=O)O)c1ccc3c(c1)OCO3)OCO2 (centres undefined)
inactive: [5] 103 % of control | [6] 105 % of control | [7] 103 % of control

CCOCC(=O)O
inactive: dose: 50.0 mg/kg/injection, schedule: Q01DX009 (ip), vehicle: saline 95 % of control | [1] 92 % of control | [2] 91 % of control

NS(=O)(=O)c1cccc(NC(=O)c2ccco2)c1
inactive: dose: 50.0 mg/kg/injection, schedule: Q01DX009 (ip), vehicle: Klucel (hydroxypropylcellulose) (HPC) 102 % of control | dose: 100.0 mg/kg/injection, schedule: Q01DX009 (ip), vehicle: Klucel (hydroxypropylcellulose) (HPC) 101 % of control | dose: 200.0 mg/kg/injection, schedule: Q01DX009 (ip), vehicle: Klucel (hydroxypropylcellulose) (HPC) 94 % of control

CC(C)=CC(=O)CC(O)(C(F)(F)F)C(F)(F)Cl (centres undefined)
inactive: dose: 25.0 mg/kg/injection, schedule: Q01DX009 (ip), vehicle: saline with Tween-80 109 % of control
